Measured values taken from patent US20230398101A1, “Co-agents as Therapy Against Anaerobic Pathogens” (priority 2022, published 2023).
Like-named read-outs stand apart in the source and are kept apart here.

Experiments:
Bifidobacterium animalis = experiment: Anaerobic agar-dilution AST (MIC, checkerboard FIC); assay type: cell-based
Phocaeicola vulgatus = experiment: as above; assay type: cell-based; conditions: for MIC vs clinical breakpoint (susceptibility): anaerobic (Table 17)
[1] = test system: Parabacteroides distasonis; experiment: as above; assay type: cell-based
Acinetobacter baumannii = experiment: Aerobic agar-dilution AST of facultative anaerobes (MIC, checkerboard FIC); assay type: cell-based
Pediococcus acidilactici = experiment: AST (MIC) of beneficial or mutualistic facultative anaerobic bacteria; assay type: cell-based
[2] = test system: Aggretibacter actinomycetemcomitans; experiment: Anaerobic agar-dilution AST (MIC, checkerboard FIC); assay type: cell-based; conditions: strain D751, anaerobic
Clostridium septicum = experiment: as above; assay type: cell-based; conditions: for MIC vs clinical breakpoint (susceptibility): anaerobic (Table 17); for MIC: Clostridium septicum
Clostridium perfringens = experiment: microbe, parasite or virus in culture; assay type: cell-based; conditions: for MIC vs clinical breakpoint (susceptibility): anaerobic (Table 17)
[3] = test system: Burkholderia thailandensis; experiment: microbe, parasite or virus in culture; assay type: cell-based; conditions: ATCC700388, pH 7
Bacteroides ovatus = experiment: Anaerobic agar-dilution AST (MIC, checkerboard FIC); assay type: cell-based
[4] = test system: Lactobacillus delbrueckii; experiment: AST (MIC) of beneficial or mutualistic facultative anaerobic bacteria; assay type: cell-based
[5] = test system: Bacteroides thetaiotaomicron; experiment: microbe, parasite or virus in culture; assay type: cell-based; conditions: for MIC: anaerobic
Enterococcus faecium = experiment: Aerobic agar-dilution AST of facultative anaerobes (MIC, checkerboard FIC), also at pH 5, 7, 8; assay type: cell-based; conditions: Enterococcus faecium 51559
Clostridioides difficile = experiment: Anaerobic agar-dilution AST (MIC, checkerboard FIC); assay type: cell-based; conditions: for MIC vs clinical breakpoint (susceptibility): anaerobic (Table 17)
[6] = test system: Lactobacillus acidophilus; experiment: AST (MIC) of beneficial or mutualistic facultative anaerobic bacteria; assay type: cell-based
Escherichia coli = experiment: Post-antibiotic effect (PAE) in vitro, viable counts; conditions: Escherichia coli ATCC 25922
Prevotella intermedia = experiment: Anaerobic agar-dilution AST (MIC, checkerboard FIC); assay type: cell-based
[7] = test system: Leuconostoc mesenteroides; experiment: AST (MIC) of beneficial or mutualistic facultative anaerobic bacteria; assay type: cell-based
Bacteroides fragilis = experiment: Anaerobic agar-dilution AST (MIC, checkerboard FIC); assay type: cell-based; conditions: for MIC vs clinical breakpoint (susceptibility): anaerobic (Table 17)

C[C@@H]1O[C@@H]1P(=O)(O)O [F, fosfomycin sodium]
MIC (Bifidobacterium animalis; Bifidobacterium animalis): 128 µg/mL | MIC vs clinical breakpoint (susceptibility) (Bifidobacterium animalis; Bifidobacterium animalis JLP-002, anaerobic (Table 17)): − | MIC (Bifidobacterium animalis; Bifidobacterium animalis TBC0002, anaerobic): 32 µg/mL | MIC (Bifidobacterium animalis; Bifidobacterium animalis, Bifidobacterium animalis TBC0002, anaerobic, read-out: MIC): 64 µg/mL | susceptibility (Bifidobacterium animalis; Bifidobacterium, anaerobic): no susceptibility | MIC (Bifidobacterium animalis; strain TBC0002, anaerobic): 128 µg/mL | MIC vs clinical breakpoint (susceptibility) (Phocaeicola vulgatus; Phocaeicola vulgatus ATCC 8482): − | MIC vs clinical breakpoint (susceptibility) (Phocaeicola vulgatus; Phocaeicola vulgatus ATCC 29327): − | MIC (Phocaeicola vulgatus; Phocaeicola vulgatus, ATCC8482, strain ATCC 8482, anaerobic): > 128 µg/mL | MIC (Phocaeicola vulgatus; Phocaeicola vulgatus, ATCC29327, Phacoeicola vulgatus ATCC 29327, anaerobic): 128 µg/mL | MIC (Phocaeicola vulgatus; Phocaeicola vulgatus, ATCC29327, strain ATCC 29327, anaerobic): > 128 µg/mL | MIC (Phocaeicola vulgatus; Phocaeicola vulgatus, ATCC29327, strain ATCC 29327, anaerobic, read-out: MIC): 64 µg/mL | MIC (Phocaeicola vulgatus; Phocaeicola vulgatus, Phacoeicola vulgatus TCC 8482, anaerobic): > 128 µg/mL | MIC (Phocaeicola vulgatus; strain ATCC 8482, anaerobic): 128 µg/mL | MIC ([1]; Parabacteroides distasonis): > 128 µg/mL | MIC ([1]; Parabacteroides distasonis CLA 348, anaerobic): >128 µg/mL | MIC (Acinetobacter baumannii): > 128 µg/mL | MIC (Acinetobacter baumannii; pH 7, Acinetobacter baumannii 918857, pH 7, read-out: MIC): 64000 µg/mL | MIC (Acinetobacter baumannii; strain 843978, aerobic, read-out: MIC): 8 µg/mL | MIC (Acinetobacter baumannii; strain 918857, aerobic, read-out: MIC): 64 µg/mL | MIC (Acinetobacter baumannii; strain 919656, aerobic, read-out: MIC): 8 µg/mL | MIC (Acinetobacter baumannii; strain 919899, aerobic, read-out: MIC): 8 µg/mL | MIC (Acinetobacter baumannii; strain 938781, aerobic, read-out: MIC): 16 µg/mL | MIC (Acinetobacter baumannii; strain 1049160, aerobic, read-out: MIC): 8 µg/mL | MIC (Pediococcus acidilactici): > 128 µg/mL | MIC [2]: 16 µg/mL | MIC vs clinical breakpoint (susceptibility) (Clostridium septicum; Clostridium septicum 11-3571): + | MIC vs clinical breakpoint (susceptibility) (Clostridium septicum; Clostridium septicum 15-847): + | MIC (Clostridium septicum; strain 11-3571, anaerobic): 16 µg/mL | MIC (Clostridium septicum; strain 15-847, anaerobic): 32 µg/mL | MIC vs clinical breakpoint (susceptibility) (Clostridium perfringens; Clostridium perfringens 2-0246-4): + | MIC vs clinical breakpoint (susceptibility) (Clostridium perfringens; Clostridium perfringens 11-46): + | MIC vs clinical breakpoint (susceptibility) (Clostridium perfringens; Clostridium perfringens 11-50): + | MIC vs clinical breakpoint (susceptibility) (Clostridium perfringens; Clostridium perfringens 11-61): + | MIC (Clostridium perfringens; Clostridium perfringens 12-117, anaerobic): 16 µg/mL | MIC vs clinical breakpoint (susceptibility) (Clostridium perfringens; Clostridium perfringens 12-117): + | MIC (Clostridium perfringens; Clostridium perfringens, Clostridium perfringens 11-46, anaerobic): 32 µg/mL | MIC (Clostridium perfringens; Clostridium perfringens, Clostridium perfringens 11-50, anaerobic): 8 µg/mL | MIC (Clostridium perfringens; Clostridium perfringens, Clostridium perfringens 11-61, anaerobic): 16 µg/mL | MIC (Clostridium perfringens; Clostridium perfringens, Clostridium perfringens 12-117, anaerobic): 32 µg/mL | MIC (Clostridium perfringens; Clostridium perfringens, strain 2-0246-4, anaerobic): 16 µg/mL | MIC (Clostridium perfringens; Clostridium perfringens, strain 11-50, anaerobic): 16 µg/mL | MIC (Clostridium perfringens; Clostridium perfringens, strain 12-117, anaerobic): 32 µg/mL | MIC (Clostridium perfringens; strain 2-0246-4, anaerobic): 8 µg/mL | MIC (Clostridium perfringens; strain 11-50, anaerobic): 8 µg/mL | MIC (Clostridium perfringens; strain 12-117, anaerobic): 16 µg/mL | MIC [3]: 64 mg/mL | MIC (Bacteroides ovatus; Bacteroides ovatus ATCC 8483, anaerobic): >128 µg/mL | MIC vs clinical breakpoint (susceptibility) (Bacteroides ovatus; Bacteroides ovatus ATCC 8483, anaerobic (Table 17)): − | MIC (Bacteroides ovatus; Bacteroides ovatus, ATCC8483): > 128 µg/mL | MIC [4]: > 128 µg/mL | MIC vs clinical breakpoint (susceptibility) ([5]; Bacteroides thetaiotaomicron VPI5482, anaerobic (Table 17)): − | MIC ([5]; Bacteroides thetaiotaomicron VPI 5842): >128 µg/mL | MIC ([5]; Bacteroides thetaiotaomicron, Bacteroides thetaiotaomicron VPI 5842): 128 µg/mL | MIC ([5]; Bacteroides thetaiotaomicron, strain VPI5482 (Tables 1, 2) / VPI 5842 (other tables)): > 128 µg/mL | MIC (Enterococcus faecium; pH 5): 16 mg/mL | MIC (Enterococcus faecium; pH 8): 64 mg/mL | MIC vs clinical breakpoint (susceptibility) (Clostridioides difficile; Clostridioides difficile 2-0247-4): + | MIC vs clinical breakpoint (susceptibility) (Clostridioides difficile; Clostridioides difficile 3/8): + | MIC vs clinical breakpoint (susceptibility) (Clostridioides difficile; Clostridioides difficile 10-3620-5): + | MIC (Clostridioides difficile; Clostridioides difficile, Clostridioides difficile 3/8, anaerobic, read-out: MIC): 32 µg/mL | MIC (Clostridioides difficile; Clostridioides difficile, Clostridioides difficile 10-3620-5, anaerobic): 16 µg/mL | MIC (Clostridioides difficile; Clostridioides difficile, strain 2-0247-4, anaerobic, read-out: MIC): 16 µg/mL | MIC (Clostridioides difficile; Clostridioides difficile, strain 10-3620-5, anaerobic, read-out: MIC): 8 µg/mL | MIC (Clostridioides difficile; strain 2-0247-4, anaerobic): 32 µg/mL | MIC (Clostridioides difficile; strain 10-3620-5, anaerobic): 16 µg/mL | MIC [6]: > 128 µg/mL | PAE (Escherichia coli; exposure μg/ml: F 1, D/S 0.5/9.5, CAv 4/8, F/D/S 0.125/0.125/2.38, F/D/S/CAv 0.06/0.03/0.6/4/0.25): 0.5 h | PAE (Escherichia coli; exposure μg/ml: F 2, D/S 1/19, CAv 4/16, F/D/S 0.25/0.25/4.75, F/D/S/CAv 0.125/0.06/1.19/4/0.5): 0.5 h | PAE (Escherichia coli; exposure μg/ml: F 4, D/S 2/38, CAv 4/32, F/D/S 0.5/0.5/9.5, F/D/S/CAv 0.25/0.125/2.38/4/1): 1 h | PAE (Escherichia coli; exposure μg/ml: F 8): 1.5 h | MIC (Prevotella intermedia; Prevotella intermedia, Prevotella intermedia 8071621, anaerobic): > 128 µg/mL | MIC (Prevotella intermedia; Prevotella intermedia, strain 807114, anaerobic): > 128 µg/mL | MIC (Prevotella intermedia; Prevotella intermedia, strain 8071621, anaerobic): > 128 µg/mL | MIC (Prevotella intermedia; Prevotella intermedia, strain 8071621, anaerobic, read-out: MIC): 64 µg/mL | MIC (Prevotella intermedia; strain 8071621, anaerobic): 128 µg/mL | MIC [7]: > 128 µg/mL | MIC (Bacteroides fragilis; ATCC25285, Bacteroides fragilis ATCC 25285, anaerobic, read-out: MIC): 64 µg/mL | MIC vs clinical breakpoint (susceptibility) (Bacteroides fragilis; Bacteroides fragilis 638R): − | MIC vs clinical breakpoint (susceptibility) (Bacteroides fragilis; Bacteroides fragilis ATCC 23745): − | MIC vs clinical breakpoint (susceptibility) (Bacteroides fragilis; Bacteroides fragilis ATCC 25285): − | MIC vs clinical breakpoint (susceptibility) (Bacteroides fragilis; Bacteroides fragilis CLA267): − | MIC vs clinical breakpoint (susceptibility) (Bacteroides fragilis; Bacteroides fragilis O16M): − | MIC (Bacteroides fragilis; Bacteroides fragilis, ATCC23745, Bacteroides fragilis ATCC 23745, anaerobic): > 128 µg/mL | MIC (Bacteroides fragilis; Bacteroides fragilis, ATCC23745, strain ATCC 23745, anaerobic): > 128 µg/mL | MIC (Bacteroides fragilis; Bacteroides fragilis, ATCC25285, Bacteroides fragilis ATCC 25285, anaerobic): > 128 µg/mL | MIC (Bacteroides fragilis; Bacteroides fragilis, ATCC25285, strain ATCC 25285, anaerobic): > 128 µg/mL | MIC (Bacteroides fragilis; Bacteroides fragilis, Bacteroides fragilis 016M, anaerobic): > 128 µg/mL | MIC (Bacteroides fragilis; Bacteroides fragilis, Bacteroides fragilis 638R, anaerobic): > 128 µg/mL | MIC (Bacteroides fragilis; Bacteroides fragilis, Bacteroides fragilis CLA 267, anaerobic): > 128 µg/mL | MIC (Bacteroides fragilis; Bacteroides fragilis, strain 638R, anaerobic): > 128 µg/mL | MIC (Bacteroides fragilis; Bacteroides fragilis, strain CLA267, anaerobic): > 128 µg/mL | MIC (Bacteroides fragilis; Bacteroides fragilis, strain O16M (016M), anaerobic): > 128 µg/mL | MIC (Bacteroides fragilis; strain ATCC 25285, anaerobic): 128 µg/mL | MIC (Bacteroides fragilis; strain CLA267, anaerobic): 128 µg/mL
